From US11596150B2, “Long chain glycolipids useful to avoid perishing or microbial contamination of materials” (IMD NATURAL SOLUTIONS GMBH, priority 2011, dated 2023)
≈ marks a conversion by molar mass, not a printed value. Like-named read-outs stand apart in the source and are kept apart here.

What was measured:
Format in all cases: cell-based
[1] = system: Corynebacterium variabile (DSM20132); test: MIC determination in microtiter plates (non-pathogenic microorganisms); details: 48 h, read-out: MIC values after 48 h
[2] = system: Dekkera naardenensis (DSM70743); test: as above; details: Brettanomyces naardenensis, 48 h, read-out: MIC values after 48 h
[3] = system: Aspergillus niger (ATCC 16404); test: as above; details: Aspergillus niger (ATCC16404); 48 h; read-out: MIC values after 48 h
[4] = system: Bacillus subtilis (ATCC6633); test: as above; details: 48 h, read-out: MIC values after 48 h
[5] = system: Zygosaccharomyces bisporus (DSM70415); test: as above; details: 48 h, read-out: MIC values after 48 h
[6] = system: Zygosaccharomyces florentinus (DSM70506); test: as above; details: Zygotorulaspora florentina, 48 h, read-out: MIC values after 48 h
[7] = system: Zygosaccharomyces bailii (DSM70492); test: as above; details: 48 h, read-out: MIC values after 48 h
[8] = system: Dekkera bruxellensis (DSM70726); test: as above; details: Brettanomyces bruxellensis, 48 h, read-out: MIC values after 48 h
[9] = system: Talaromyces luteus (CBS348.51); test: MIC after 48 h (Example 9); details: Ascospirella lutea
[10] = system: Zygosaccharomyces rouxii (NCYC381); test: MIC determination in microtiter plates (non-pathogenic microorganisms); details: 48 h, read-out: MIC values after 48 h
[11] = system: Mucor plumbeus (MUCL49355); test: as above
[12] = system: Pyricularia oryzae (DSM62938); test: microbe, parasite or virus in culture; details: DSM62938, 48 h, read-out: MIC values after 48 h
[13] = system: Lactobacillus plantarum (DSM 12028); test: MIC determination in microtiter plates (non-pathogenic microorganisms); details: Lactiplantibacillus plantarum; Lactobacillus plantarum (DSM12028); 48 h; read-out: MIC values after 48 h
[14] = system: Saccharomyces cerevisiae (HT10); test: as above; details: 48 h, read-out: MIC values after 48 h
[15] = system: Byssochlamys fulva (DSM62097); test: as above; details: Paecilomyces fulvus, 48 h, read-out: MIC values after 48 h
[16] = M. plumbeus (MUCL49355), SDB medium, day not given (Table 19)
[17] = M. plumbeus (MUCL49355), SDB medium, day not printed (first line of Table 19)
[18] = Mucor plumbeus (MUCL49355), 48 h, read-out: MIC values after 48 h

Structure (SMILES) | MIC [1] [µg/mL] | MIC [2] [µg/mL] | MIC [3] [µg/mL] | MIC [4] [µg/mL] | MIC [5] [µg/mL] | MIC [6] [µg/mL] | MIC [7] [µg/mL] | MIC [8] [µg/mL] | MIC [9] [µg/mL] | MIC [10] [µg/mL] | MIC [11, 16] | MIC [11, 17] | MIC [11, 18] [µg/mL] | MIC [12] [µg/mL] | MIC [13] [µg/mL] | MIC [14] [µg/mL] | also measured
CCCCC(CCCC(O)C(O)CCCCCCCCCCCCCCC(O)C(=O)O)OC1OCC(O)C(O)C1OC1OCC(OC(C)=O)C(O)C1OC1OC(CO)C(O)C(O)C1O (centres unmarked) [[14]] | 1.6 (≈ 1.72 µM) | 25 (≈ 26.9 µM) | 50 (≈ 53.8 µM) | 1.6 (≈ 1.72 µM) | 50 (≈ 53.8 µM) | 50 (≈ 53.8 µM) | 25 (≈ 26.9 µM) | 50 (≈ 53.8 µM) | 50 (≈ 53.8 µM) | 25 (≈ 26.9 µM) | >100 | 50 | 50 (≈ 53.8 µM) | 25 (≈ 26.9 µM) | 25 (≈ 26.9 µM) | 50 (≈ 53.8 µM) | 
CCCCC(CCCC(O)C(O)CCCCCCCCCCCCCCC(O)C(=O)O)OC1OCC(O)C(O)C1OC1OCC(O)C(O)C1OC1OC(CO)C(O)C(O)C1O (centres unmarked) [[16], Glykenin DGC or Glykenin DGB] | 1.6 (≈ 1.8 µM) | 50 (≈ 56.4 µM) | 25 (≈ 28.2 µM) | 3.1 (≈ 3.49 µM) | > 100 | > 100 | 25 (≈ 28.2 µM) | > 100 | 50 (≈ 56.4 µM) | 100 (≈ 113 µM) | >100 | >100 | > 100 | 25 (≈ 28.2 µM) | 50 (≈ 56.4 µM) | > 100 | MIC [15]: 6.3 µg/mL (≈ 7.1 µM)
CCCCC(CCCC(O)C(O)CCCCCCCCCCCCCCC(O)C(=O)O)OC1OCC(O)C(O)C1OC1OCC(O)C(O)C1OC1OC(COC(C)=O)C(OC(C)=O)C(O)C1O (centres unmarked) [[6], Glykenin IIIB or Glykenin IIIC] |  |  |  |  |  |  |  |  |  |  | 25 | 25 |  |  |  |  | 
CCCCCCC(CCCC(O)CCCCCCCCCCCCCC(O)C(=O)O)OC1OCC(O)C(O)C1OC1OCC(OC(C)=O)C(O)C1OC1OC(COC(=O)CC(C)C)C(O)C(O)C1O (centres unmarked) [[18]] |  |  |  |  |  |  |  |  |  |  | >100 | 25 |  |  |  |  | 
C/C=C/C=C/C(=O)O [sorbic acid, reference compound] |  |  |  |  |  |  |  |  |  |  |  |  |  |  |  |  | MIC ([11]; M. plumbeus (MUCL49355), SDB medium, day 2): 250; MIC ([11]; M. plumbeus (MUCL49355), SDB medium, day 7): 500; MIC ([11]; M. plumbeus (MUCL49355), SDB medium, day 16): 1000; MIC ([11]; M. plumbeus (MUCL49355), SDB medium, day 28): 1000
